Results taken from PubChem BioAssay AID1963839 (Molecular Pharmacology Branch, DTP, NCI, 2024).

System: 817829-284-R-J1-PDC complex spheroid viability
Assay: Anticancer human tumor 817829-284-R-J1-PDC patient-derived colon adenocarcinoma cell line growth inhibition [POLQ]
Settings: for IC50: curve of first compound; for viability, T/C: stronger effect = lower value
Procedure, shortened: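 PDC + HUVEC + MSC complex spheroids; POLQ inhibitors ± partner drugs; top conc. at/near clinical Cmax, else 10 microM (SN-38 1 microM), half-log dilutions; 37 degrees C, 5% CO2.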

[1] = second compound 0.0316 µM, first compound 0.0316 µM
[2] = second compound 0.0316 µM, first compound 0.1 µM
[3] = second compound 0.0316 µM, first compound 0.316 µM
[4] = second compound 0.0316 µM, first compound 1 µM
[5] = second compound 0.0316 µM, first compound 3.16 µM
[6] = second compound 0.0316 µM, first compound 10 µM
[7] = second compound 0.1 µM, first compound 0.0316 µM
[8] = second compound 0.1 µM, first compound 0.1 µM
[9] = second compound 0.1 µM, first compound 0.316 µM
[10] = second compound 0.1 µM, first compound 1 µM
[11] = second compound 0.1 µM, first compound 3.16 µM
[12] = second compound 0.1 µM, first compound 10 µM
[13] = second compound 0.316 µM, first compound 0.0316 µM
[14] = second compound 0.316 µM, first compound 0.1 µM
[15] = second compound 0.316 µM, first compound 0.316 µM
[16] = second compound 0.316 µM, first compound 1 µM
[17] = second compound 0.316 µM, first compound 3.16 µM
[18] = second compound 0.316 µM, first compound 10 µM
[19] = second compound 1 µM, first compound 0.0316 µM
[20] = second compound 1 µM, first compound 0.1 µM
[21] = second compound 1 µM, first compound 0.316 µM
[22] = second compound 1 µM, first compound 1 µM
[23] = second compound 1 µM, first compound 3.16 µM
[24] = second compound 1 µM, first compound 10 µM
[25] = second compound 3.16 µM, first compound 0.0316 µM
[26] = second compound 3.16 µM, first compound 0.1 µM
[27] = second compound 3.16 µM, first compound 0.316 µM
[28] = second compound 3.16 µM, first compound 1 µM
[29] = second compound 3.16 µM, first compound 3.16 µM
[30] = second compound 3.16 µM, first compound 10 µM
[31] = second compound 10 µM, first compound 0.0316 µM
[32] = second compound 10 µM, first compound 0.1 µM
[33] = second compound 10 µM, first compound 0.316 µM
[34] = second compound 10 µM, first compound 1 µM
[35] = second compound 10 µM, first compound 3.16 µM
[36] = second compound 10 µM, first compound 10 µM
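Also: spheroids exposed to compounds for 7 days.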
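For viability, T/C in this document: 100% = DMSO vehicle-treated spheroids.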

With `C=CC(=O)N1CCN(c2nc(=O)n(-c3c(C)ccnc3C(C)C)c3nc(-c4c(O)cccc4F)c(F)cc23)C(C)C1` (stereo not drawn) + Cc1cccc(N(C)C(=O)C2C(O)CCN2c2nc(C)cc(C(F)(F)F)c2C#N)c1 the IC50 (second compound 0.0316 µM) was 9.4 µM, the IC50 (second compound 0.1 µM) was 9.47 µM and the IC50 (second compound 0.316 µM) was 9.09 µM. The IC50 (second compound 1 µM) was 7.8 µM, the IC50 (second compound 3.16 µM) was 7.29 µM and the IC50 (second compound 10 µM) was greater than 10 µM. It also gave a viability, T/C [1] of 94.4%, a viability, T/C [2] of 140% and a viability, T/C [3] of 112%. For the same compound, the viability, T/C [4] was 105%, the viability, T/C [5] was 82.7% and the viability, T/C [6] was 48%. It also gave a viability, T/C [7] of 91.1%, a viability, T/C [8] of 109% and a viability, T/C [9] of 104%. The viability, T/C [10] was 110%, the viability, T/C [11] was 86.3% and the viability, T/C [12] was 48.2%. The viability, T/C [13] was 92.2%, the viability, T/C [14] was 109% and the viability, T/C [15] was 108%. It also gave a viability, T/C [16] of 83.5%, a viability, T/C [17] of 83.1% and a viability, T/C [18] of 46.9%. The viability, T/C [19] was 92.9%, the viability, T/C [20] was 91.2% and the viability, T/C [21] was 112%. For the same compound, the viability, T/C [22] was 99%, the viability, T/C [23] was 86.4% and the viability, T/C [24] was 39.9%. It also gave a viability, T/C [25] of 113%, a viability, T/C [26] of 125% and a viability, T/C [27] of 87.8%. It also gave a viability, T/C [28] of 89.3%, a viability, T/C [29] of 76.3% and a viability, T/C [30] of 39.9%. The viability, T/C [31] was 89.4%, the viability, T/C [32] was 104% and the viability, T/C [33] was 84%. For the same compound, the viability, T/C [34] was 113%, the viability, T/C [35] was 66.9% and the viability, T/C [36] was 54.9%.

In the case of `CC(C)n1c(=O)n(C)c2cnc3cc(F)c(-c4ccc(OCCCN5CCCCC5)nc4)cc3c21` + Cc1cccc(N(C)C(=O)C2C(O)CCN2c2nc(C)cc(C(F)(F)F)c2C#N)c1, the IC50 (second compound 0.0316 µM) is reported as 6.74 µM, the IC50 (second compound 0.1 µM) is reported as 7.64 µM and the IC50 (second compound 0.316 µM) is reported as 8.32 µM. It also gave an IC50 (second compound 1 µM) of 5.97 µM, an IC50 (second compound 3.16 µM) of 8.23 µM and an IC50 (second compound 10 µM) of 6.08 µM. For the same compound, the viability, T/C [1] was 91.7%, the viability, T/C [2] was 77.1% and the viability, T/C [3] was 96.6%. The viability, T/C [4] was 86.3%, the viability, T/C [5] was 84.3% and the viability, T/C [6] was 32.1%. For the same compound, the viability, T/C [7] was 73.6%, the viability, T/C [8] was 107% and the viability, T/C [9] was 91.6%. The viability, T/C [10] was 76.8%, the viability, T/C [11] was 106% and the viability, T/C [12] was 37.5%. The viability, T/C [13] was 87.3%, the viability, T/C [14] was 83.3% and the viability, T/C [15] was 94.4%. For the same compound, the viability, T/C [16] was 87.6%, the viability, T/C [17] was 83% and the viability, T/C [18] was 43.8%. It also gave a viability, T/C [19] of 99.7%, a viability, T/C [20] of 86.5% and a viability, T/C [21] of 99.1%. For the same compound, the viability, T/C [22] was 72.6%, the viability, T/C [23] was 73.7% and the viability, T/C [24] was 34.4%. For the same compound, the viability, T/C [25] was 93.8%, the viability, T/C [26] was 70.6% and the viability, T/C [27] was 78.1%. The viability, T/C [28] was 100%, the viability, T/C [29] was 70.5% and the viability, T/C [30] was 45.8%. The viability, T/C [31] was 85.7%, the viability, T/C [32] was 81.6% and the viability, T/C [33] was 74%. It also gave a viability, T/C [34] of 67.8%, a viability, T/C [35] of 79% and a viability, T/C [36] of 28.9%.

With `CC1COCCN1c1cc(C2(O)CC3CCC(C2)O3)c2cnn(-c3ccn[nH]3)c2n1` (stereo not drawn) + Cc1cccc(N(C)C(=O)C2C(O)CCN2c2nc(C)cc(C(F)(F)F)c2C#N)c1 the IC50 (second compound 0.0316 µM) was less than 0.0316 µM, the IC50 (second compound 0.1 µM) was less than 0.0316 µM and the IC50 (second compound 0.316 µM) was less than 0.0316 µM. The IC50 (second compound 1 µM) was less than 0.0316 µM, the IC50 (second compound 3.16 µM) was less than 0.0316 µM and the IC50 (second compound 10 µM) was less than 0.0316 µM. The viability, T/C [1] was 28.6%, the viability, T/C [2] was 10.7% and the viability, T/C [3] was 4.5%. For the same compound, the viability, T/C [4] was 3.59%, the viability, T/C [5] was 2.99% and the viability, T/C [6] was 2.26%. It also gave a viability, T/C [7] of 29.8%, a viability, T/C [8] of 11.4% and a viability, T/C [9] of 4.57%. The viability, T/C [10] was 3.83%, the viability, T/C [11] was 3.59% and the viability, T/C [12] was 2.95%. For the same compound, the viability, T/C [13] was 28.6%, the viability, T/C [14] was 9.76% and the viability, T/C [15] was 3.78%. For the same compound, the viability, T/C [16] was 3.72%, the viability, T/C [17] was 3.01% and the viability, T/C [18] was 1.9%. It also gave a viability, T/C [19] of 24.4%, a viability, T/C [20] of 9.97% and a viability, T/C [21] of 4.66%. For the same compound, the viability, T/C [22] was 4.17%, the viability, T/C [23] was 2.77% and the viability, T/C [24] was 2.21%. For the same compound, the viability, T/C [25] was 26.8%, the viability, T/C [26] was 9.02% and the viability, T/C [27] was 5.06%. It also gave a viability, T/C [28] of 3.24%, a viability, T/C [29] of 2.62% and a viability, T/C [30] of 2.27%. For the same compound, the viability, T/C [31] was 23%, the viability, T/C [32] was 10.3% and the viability, T/C [33] was 6.05%. For the same compound, the viability, T/C [34] was 3.31%, the viability, T/C [35] was 2.74% and the viability, T/C [36] was 2.44%.

For `CCc1cc2c(N3CCc4c(cc(Cn5ccnc5)cc4-c4cn(C)nc4C(F)(F)F)C3=O)cc(C)nc2c(OC)n1` + Cc1cccc(N(C)C(=O)C2C(O)CCN2c2nc(C)cc(C(F)(F)F)c2C#N)c1, the IC50 (second compound 0.0316 µM) was 1.78 µM, the IC50 (second compound 0.1 µM) was 2.49 µM and the IC50 (second compound 0.316 µM) was 1.18 µM. It also gave an IC50 (second compound 1 µM) of 1.63 µM, an IC50 (second compound 3.16 µM) of 2.68 µM and an IC50 (second compound 10 µM) of 1.36 µM. It also gave a viability, T/C [1] of 85.3%, a viability, T/C [2] of 65.6% and a viability, T/C [3] of 68.5%. For the same compound, the viability, T/C [4] was 59.6%, the viability, T/C [5] was 41.8% and the viability, T/C [6] was 32.9%. The viability, T/C [7] was 88.9%, the viability, T/C [8] was 77.5% and the viability, T/C [9] was 62.2%. For the same compound, the viability, T/C [10] was 73.8%, the viability, T/C [11] was 43.6% and the viability, T/C [12] was 28.8%. For the same compound, the viability, T/C [13] was 72%, the viability, T/C [14] was 83.9% and the viability, T/C [15] was 94%. For the same compound, the viability, T/C [16] was 53.1%, the viability, T/C [17] was 38.8% and the viability, T/C [18] was 22.9%. The viability, T/C [19] was 84.1%, the viability, T/C [20] was 64.3% and the viability, T/C [21] was 81.8%. For the same compound, the viability, T/C [22] was 52.9%, the viability, T/C [23] was 43.3% and the viability, T/C [24] was 30.2%. It also gave a viability, T/C [25] of 79.4%, a viability, T/C [26] of 87.9% and a viability, T/C [27] of 66.6%. The viability, T/C [28] was 59.3%, the viability, T/C [29] was 51% and the viability, T/C [30] was 33.8%. The viability, T/C [31] was 71.4%, the viability, T/C [32] was 78.2% and the viability, T/C [33] was 66.2%. For the same compound, the viability, T/C [34] was 56.9%, the viability, T/C [35] was 34.3% and the viability, T/C [36] was 26.7%.
